For orientation: IC50 means the point on the concentration scale where inhibition reaches its midpoint.

The values that follow come from patent publication US20200181104A1, “SSAO INHIBITORS AND USES THEREOF” (METACRINE, INC., priority 2018, published 2020).

Structures are written as SMILES. Counter-ions that a name gives are not always drawn.

For this experiment, the target named is T1, Recombinant Human SSAO/VAP-1/AOC3 (Homo sapiens, UniProt Q16853).
T1 construct: purchased R&D systems 3957-AO
T1 sequence (Q16853 1-763): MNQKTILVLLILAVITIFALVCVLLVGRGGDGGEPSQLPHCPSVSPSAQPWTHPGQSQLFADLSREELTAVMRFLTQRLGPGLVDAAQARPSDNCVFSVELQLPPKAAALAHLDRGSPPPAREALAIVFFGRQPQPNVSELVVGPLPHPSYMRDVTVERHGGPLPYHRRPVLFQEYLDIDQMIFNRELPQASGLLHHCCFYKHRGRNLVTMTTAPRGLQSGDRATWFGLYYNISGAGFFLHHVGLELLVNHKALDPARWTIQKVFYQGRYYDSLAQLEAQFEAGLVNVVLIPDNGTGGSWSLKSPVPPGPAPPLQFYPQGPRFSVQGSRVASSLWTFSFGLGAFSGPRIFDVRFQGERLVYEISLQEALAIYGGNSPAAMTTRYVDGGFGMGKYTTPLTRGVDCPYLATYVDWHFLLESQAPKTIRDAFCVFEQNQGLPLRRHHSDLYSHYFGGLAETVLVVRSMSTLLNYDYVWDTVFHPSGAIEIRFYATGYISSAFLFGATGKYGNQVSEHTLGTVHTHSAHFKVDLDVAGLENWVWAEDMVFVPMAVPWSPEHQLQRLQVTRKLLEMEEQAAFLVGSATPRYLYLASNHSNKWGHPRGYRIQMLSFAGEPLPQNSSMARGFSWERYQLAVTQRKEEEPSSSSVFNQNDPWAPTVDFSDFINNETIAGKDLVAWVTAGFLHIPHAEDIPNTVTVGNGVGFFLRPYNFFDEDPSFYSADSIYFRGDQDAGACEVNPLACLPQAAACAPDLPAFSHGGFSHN
The experiment can be described thus: Human Semicarbazide-Sensitive Amine Oxidase (SSAO) Assay. The format is biochemical. The settings on record: recombinant enzyme, 30 minutes preincubation at 37° C., benzylamine substrate, Amplex Ultra Red/HRP fluorescence. In short, it runs like this: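 IC50 from kinetic Amplex Ultra Red/HRP fluorescence (ex 544, em 590 nm, 30-120 min) after benzylamine addition. Beforehand, 6-10 compound dilutions were preincubated 30 min at 37 °C with recombinant human SSAO in 50 mM HEPES (enzyme working concentration 2.5 μg/ml).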
For `CO[C@H]1CCN(C(=O)C23CCC(c4ccc(OC/C(=C/F)CN)cc4)(CC2)CC3)C1` [Compound 2.121, (S,E)-(4-(4-((2-(aminomethyl)-3-fluoroallyl)oxy)phenyl)bicyclo [2.2.2]octan-1-yl)(3-methoxypyrrolidin-1-yl)methanone], the IC50 is at most 0.01 µM.
As for `NC/C(=C\F)COc1ccc(C23CCC(C(=O)NC4(c5ccccc5)CCOCC4)(CC2)CC3)cc1` [Compound 2.69, (E)-4-(4-((2-(aminomethyl)-3-fluoroallyl)oxy)phenyl)-N-(4-phenyltetrahydro-2H-pyran-4-yl)bicyclo[2.2.2]octane-1-carboxamide], the figure is at most 0.01 µM; as for `COC(=O)C12CCC(c3ccc(OC/C(=C/F)CN)cc3)(CC1)CC2` [Compound 2.04, (E)-methyl 4-(4-((2-(aminomethyl)-3-fluoroallyl)oxy)phenyl)bicyclo [2.2.2]octane-1-carboxylate], at most 0.01 µM; as for `NC/C(=C\F)CNc1ccc(C23CCC(C(=O)NC4CCOCC4)(CC2)CC3)cc1` [Compound 9, (E)-4-(4-((2-(Aminomethyl)-3-fluoroallyl)amino)phenyl)-N-(tetrahydro-2H-pyran-4-yl)bicyclo[2.2.2]octane-1-carboxamide Hydrochloride], 0.01 to 0.1 µM.
